Measured values published in patent US20060160197A1 (priority 2004, published 2006).

Legend:
Type in all cases: physicochemical
[1] = Example 2 reactive solvent extraction, 70% Alamine 336/10% MIBK/20% kerosene, 50° C.; conditions: pH 2 to 3
Protocol: (§1) A variety of analytical methods can be employed to analyze the reactants and products produced using the present methods include HPLC, GC, ion selective electrodes, MS, NMR, etc. HPLC was used to measure glycolic acid and various related products. Briefly, samples are diluted with water (as needed to be within HPLC detection range) and mixed 1:1 with 0.2 M n-propanol in water (HPLC internal standard). HPLC Analytical Method: (BioRad HPX 87H ion exclusion column (BioRad, Hercules, Calif.), 300 mm×7.8 mm; 0.01 N H2SO4 mobile phase; 1.0 mL/min flow at 50° C.; 10 μL injection volume; RI detector and UV 210 nm, 20 min analysis time). HPLC Equipment: (Waters 2695 ‘Alliance’ Separations Module, 2410 Refractive Index Detector, 2487 Dual λ Absorbance Detector and Empower Pro Software (Waters Corp, Milford, Mass.).
Solvent Extraction Using Approximately 70% C8-C10 Trialkylamine in Combination with 10% Methyl Isobutyl Ketone and 20% Kerosene at 50° C.
Into a 4-mL glass reactor equipped with magnetic stir bar was placed 1 mL of a mixed solvent containing 70% (volume/volume) Alamine® 336 (Cognis), 10% (volume/volume) methyl isobutyl ketone (MIBK) and 20% (volume/volume) kerosene. The pH of an aqueous solution of ammonium glycolate (5 wt % to 40 wt %) was adjusted to pH 2 to 3 with concentrated sulfuric acid, then 1 mL of the resulting aqueous solution was added to the reactor. The resulting mixture was stirred for 30 minutes at 50° C.

[2] = Example 9 reactive solvent extraction, 90% Alamine 336/10% 1-octanol, 75° C.; conditions: pH 2 to 3
Protocol: as §1
Solvent Extraction Using Approximately 90% C8-C10 Trialkylamine in Combination with 10% 1-Octanol at 75° C.
Into a 4-mL glass reactor equipped with magnetic stir bar was placed 1 mL of a mixed solvent containing 90% (volume/volume) Alamine® 336 (Cognis), 10% (volume/volume) 1-octanol. The pH of an aqueous solution of ammonium glycolate (5 wt % to 40 wt %) was adjusted to pH 2 to 3 with concentrated sulfuric acid, then 1 mL of the resulting aqueous solution was added to the reactor. The resulting mixture was stirred for 30 minutes at 75° C.

[3] = Example 8 reactive solvent extraction, 90% Alamine 336/10% 1-octanol, 25° C.; conditions: pH 2 to 3
Protocol: as §1
Solvent Extraction Using Approximately 90% C8-C10 Trialkylamine in Combination with 10% 1-Octanol at 25° C.
Into a 4-mL glass reactor equipped with magnetic stir bar was placed 1 mL of a mixed solvent containing 90% (volume/volume) Alamine® 336 (Cognis), 10% (volume/volume) 1-octanol. The pH of an aqueous solution of ammonium glycolate (5 wt % to 40 wt %) was adjusted to pH 2 to 3 with concentrated sulfuric acid, then 1 mL of the resulting aqueous solution was added to the reactor. The resulting mixture was stirred for 30 minutes at 25° C.

[4] = Example 13 reactive solvent extraction, 90% Alamine 336/10% toluene, 75° C.; conditions: pH 2 to 3
Protocol: as §1
Solvent Extraction Using Approximately 90% C8-C10 Trialkylamine in Combination with 10% Toluene at 75° C.
Into a 4-mL glass reactor equipped with magnetic stir bar was placed 1 mL of a mixed solvent containing 90% (volume/volume) Alamine® 336 (Cognis), 10% (volume/volume) toluene. The pH of an aqueous solution of ammonium glycolate (5 wt % to 40 wt %) was adjusted to pH 2 to 3 with concentrated sulfuric acid, then 1 mL of the resulting aqueous solution was added to the reactor. The resulting mixture was stirred for 30 minutes at 75° C.

[5] = Example 17 back extraction with aqueous glycolic acid from loaded solvent (70% Alamine 336/10% MIBK/20% kerosene), 120° C.; conditions: 40 psig nitrogen
Protocol: as §1
Following the procedures in Example 1, into a 1-L cylindrical glass vessel on an extraction mixer (mix by rotating back and forth vertically) was placed 100 mL of a mixed solvent containing 70% (volume/volume) Alamine® 336 (Cognis), 10% (volume/volume) methyl isobutyl ketone (MIBK) and 20% (volume/volume) kerosene. The pH of an aqueous solution of ammonium glycolate (10 wt % to 50 wt %) was adjusted to approximately pH 2 to 3 with concentrated sulfuric acid, then 100 mL of the resulting aqueous solution was added to the extraction mixer. […]

[6] = initial 3.6 wt % glycolic acid in aqueous phase
[7] = initial 8.5 wt % glycolic acid in aqueous phase
[8] = initial 12.1 wt % glycolic acid in aqueous phase
[9] = initial 16.1 wt % glycolic acid in aqueous phase
[10] = initial 20.6 wt % glycolic acid in aqueous phase
[11] = initial 25.1 wt % glycolic acid in aqueous phase
[12] = initial 29.1 wt % glycolic acid in aqueous phase
[13] = initial 32.8 wt % glycolic acid in aqueous phase

Question: Which “Partition coefficient (wt % org./wt % aq.)” value [1, 6] does the source give for O=C(O)CO [glycolic acid] here?
Answer: 0.32

Question: What about the “Partition coefficient (wt % org./wt % aq.)” value [1, 7] of the same compound?
Answer: 0.66

Question: And the “Partition coefficient (wt % org./wt % aq.)” value [1, 8]?
Answer: 0.63

Question: What about the “Partition coefficient (wt % org./wt % aq.)” value [1, 9] of the same compound?
Answer: 0.74

Question: And the “Partition coefficient (wt % org./wt % aq.)” value [1, 10]?
Answer: 0.69

Question: And the “Partition coefficient (wt % org./wt % aq.)” value [1, 11]?
Answer: 0.83

Question: What about the “Partition coefficient (wt % org./wt % aq.)” value [1, 12] of the same compound?
Answer: 0.68

Question: What about the “Partition coefficient (wt % org./wt % aq.)” value [1, 13] of the same compound?
Answer: 0.61

Question: And the “Partition coefficient (wt % org./wt % aq.)” value [2, 6]?
Answer: 0.54

Question: What about the “Partition coefficient (wt % org./wt % aq.)” value [2, 7] of the same compound?
Answer: 0.56

Question: And the “Partition coefficient (wt % org./wt % aq.)” value [2, 8]?
Answer: 0.62

Question: And the “Partition coefficient (wt % org./wt % aq.)” value [2, 9]?
Answer: 0.63

Question: What about the “Partition coefficient (wt % org./wt % aq.)” value [2, 10] of the same compound?
Answer: 0.73

Question: And the “Partition coefficient (wt % org./wt % aq.)” value [2, 11]?
Answer: 0.75

Question: What about the “Partition coefficient (wt % org./wt % aq.)” value [2, 12] of the same compound?
Answer: 0.73

Question: And the “Partition coefficient (wt % org./wt % aq.)” value [2, 13]?
Answer: 0.70

Question: And the “Partition coefficient (wt % org./wt % aq.)” value [3, 6]?
Answer: 1.09

Question: What about the “Partition coefficient (wt % org./wt % aq.)” value [3, 7] of the same compound?
Answer: 1.03

Question: What about the “Partition coefficient (wt % org./wt % aq.)” value [3, 8] of the same compound?
Answer: 1.30

Question: And the “Partition coefficient (wt % org./wt % aq.)” value [3, 9]?
Answer: 1.20

Question: And the “Partition coefficient (wt % org./wt % aq.)” value [3, 10]?
Answer: 1.20

Question: What about the “Partition coefficient (wt % org./wt % aq.)” value [3, 11] of the same compound?
Answer: 1.10

Question: And the “Partition coefficient (wt % org./wt % aq.)” value [3, 12]?
Answer: 0.99

Question: What about the “Partition coefficient (wt % org./wt % aq.)” value [3, 13] of the same compound?
Answer: 0.82

Question: What about the “Partition coefficient (wt % org./wt % aq.)” value [4, 6] of the same compound?
Answer: 0.51

Question: And the “Partition coefficient (wt % org./wt % aq.)” value [4, 7]?
Answer: 0.58

Question: What about the “Partition coefficient (wt % org./wt % aq.)” value [4, 8] of the same compound?
Answer: 0.67

Question: What about the “Partition coefficient (wt % org./wt % aq.)” value [4, 9] of the same compound?
Answer: 0.63

Question: And the “Partition coefficient (wt % org./wt % aq.)” value [4, 10]?
Answer: 0.65

Question: What about the “Partition coefficient (wt % org./wt % aq.)” value [4, 11] of the same compound?
Answer: 0.73

Question: And the “Partition coefficient (wt % org./wt % aq.)” value [4, 12]?
Answer: 0.75

Question: And the “Partition coefficient (wt % org./wt % aq.)” value [4, 13]?
Answer: 0.75

Question: And the “Partition coefficient (wt % org./wt % aq.)” value ([5]; initial 20.0 wt % glycolic acid in aqueous phase, 16.0 wt % in loaded solvent)?
Answer: 0.59

Question: And the “Partition coefficient (wt % org./wt % aq.)” value ([5]; initial 40.0 wt % glycolic acid in aqueous phase, 17.5 wt % in loaded solvent)?
Answer: 0.51
